Activity calls are given as the source filed them. No cut-off for these calls is given here.
Columns and labels:
4T1 [1] = experiment: Cytotoxicty against mouse 4T1 cells assessed as cell viability by MTT assay; assay type: functional, cell-based
[2] = Drug localization in mitochondria of mouse 4T1 cells assessed as fluorescence intensity measured using pearson co-efficient incubated for 10 hrs by mito-tracker red fluorescent dye based confocal laser scanning microscopic analysis; assay type: ADME; conditions: 4t1, 10 h
A549 = experiment: Cytotoxicity against human A549 cells assessed as cell viability by MTT assay; assay type: functional, cell-based
HeLa = experiment: Cytotoxicity against human Hela cells assessed as cell viability by MTT assay; assay type: functional, cell-based
MCF7 = experiment: Cytotoxicity against human MCF7 cells assessed as cell viability by MTT assay; assay type: functional, cell-based
U-87 MG = experiment: Cytotoxicity against human U87 cells assessed as cell viability by MTT assay; assay type: functional, cell-based, U-87MG ATCC
4T1 [3] = experiment: Induction of apoptosis in mouse 4T1 cells assessed as viable cells by Annexin V-FITC and PI staining based flow cytometry analysis (reference value: 96.2 %); assay type: functional
4T1 [4] = experiment: Induction of apoptosis in mouse 4T1 cells assessed as early apoptotic cells by Annexin V-FITC and PI staining based flow cytometry analysis(reference value: 3.60 %); assay type: functional
4T1 [5] = experiment: Induction of apoptosis in mouse 4T1 cells assessed as late apoptotic cells by Annexin V-FITC and PI staining based flow cytometry analysis (reference value: 0.13 %); assay type: functional
4T1 [6] = experiment: Induction of apoptosis in mouse 4T1 cells assessed as necrotic cells by Annexin V-FITC and PI staining based flow cytometry analysis (reference value: 0.085 %); assay type: functional
Mitochondrial membrane = experiment: Induction of mitochondrial membrane potential loss in mouse 4T1 cells assessed as increase in green fluorescence by JC-1 staining based flow cytometric analysis (reference value: 7.4 %); assay type: cell membranes
4T1 [7] = experiment: Induction of ROS production in mouse 4T1 cells assessed as increase in intracellular ROS level by […] staining based flow cytometry (reference value: 7.8%); assay type: functional
4T1 [8] = experiment: Cytotoxicty against mouse 4T1 cells assessed as cell death by measuring red staining by calcein/PI staining based live/dead staining analysis; assay type: functional
4T1 [9] = experiment: Induction of immunogenic cell death in mouse 4T1 cells assessed as increase in CRT expression by flow cytometry analysis (reference value: 2.55%); assay type: functional
4T1 [10] = experiment: Induction of immunogenic cell death in mouse 4T1 cells assessed as increase in CRT exposure on cell surface by measuring increase in red fluorescence by CLSM analysis (reference value: 2.55%); assay type: functional

Row | Compound | IC50 (4T1 [1]) | Flu intensity [2] | IC50 (A549) | IC50 (HeLa) | IC50 (MCF7) | IC50 (U-87 MG) | Activity (4T1 [3]) | Activity (4T1 [4]) | Activity (4T1 [5]) | Activity (4T1 [6]) | Activity (Mitochondrial membrane) | Activity (4T1 [7]) | Activity (4T1 [8]) | Activity (4T1 [9]) | Activity (4T1 [10])
1 | C[C@H]1[C@H](OC(=O)CCC(=O)OCCCCCOC(=O)c2cc(O)c3c(c2)C(=O)c2cccc(O)c2C3=O)O[C@@H]2O[C@@]3(C)CC[C@H]4[C@H](C)CC[C@@H]1[C@@]24OO3 | 1680 nM | 0.94 | 3190 nM | 2880 nM | 2270 nM | 2910 nM | 69.5% | 13% | 15.2% | 2.34% | 36.5% | 30% | Active |  | 
2 | C[C@H]1[C@H](OC(=O)CCC(=O)OCCOC(=O)c2cc(O)c3c(c2)C(=O)c2cccc(O)c2C3=O)O[C@@H]2O[C@@]3(C)CC[C@H]4[C@H](C)CC[C@@H]1[C@@]24OO3 | 1400 nM | 0.91 | 3010 nM | 2770 nM | 2230 nM | 2440 nM | 52.6% | 13.9% | 26.7% | 6.81% | 39.2% | 39.6% | Active |  | 
3 | C[C@H]1[C@H](OC(=O)CCC(=O)OCCCOC(=O)c2cc(O)c3c(c2)C(=O)c2cccc(O)c2C3=O)O[C@@H]2O[C@@]3(C)CC[C@H]4[C@H](C)CC[C@@H]1[C@@]24OO3 | 1410 nM | 0.96 | 2930 nM | 2900 nM | 2430 nM | 2560 nM | 60.1% | 14.9% | 21.6% | 3.35% | 37.3% | 31% | Active |  | 
4 | C[C@H]1[C@H](OC(=O)CCC(=O)O)O[C@@H]2O[C@@]3(C)CC[C@H]4[C@H](C)CC[C@@H]1[C@@]24OO3 [ARTESUNATE] | 12000 nM |  | 14700 nM | 15400 nM | 12700 nM | 13500 nM | 90.6% | 6.46% | 2.24% | 0.71% | 14.8% | 14.3% |  | 9.59% | 9.59%
5 | O=C(O)c1cc(O)c2c(c1)C(=O)c1cccc(O)c1C2=O [RHEIN] | 51500 nM | 0.93 | 53400 nM | 50800 nM | 56500 nM | 47800 nM | 94% | 4.28% | 0.86% | 0.83% | 11.4% | 11.8% |  | 3.82% | 3.82%
6 | C[C@H]1[C@H](OC(=O)CCC(=O)OCCCCCCOC(=O)c2cc(O)c3c(c2)C(=O)c2cccc(O)c2C3=O)O[C@@H]2O[C@@]3(C)CC[C@H]4[C@H](C)CC[C@@H]1[C@@]24OO3 | 1800 nM | 0.95 | 3290 nM | 3110 nM | 2190 nM | 2690 nM | 65.8% | 14.2% | 17.7% | 2.37% | 38.1% | 32.7% | Active |  | 
7 | CC(=O)O[C@H]1C(=O)[C@@]2(C)[C@H]([C@H](OC(=O)c3ccccc3)[C@]3(O)C[C@H](OC(=O)[C@H](O)[C@@H](NC(=O)c4ccccc4)c4ccccc4)C(C)=C1C3(C)C)[C@]1(OC(C)=O)CO[C@@H]1C[C@@H]2O [PACLITAXEL] | 3150 nM |  |  |  |  |  |  |  |  |  |  |  |  |  | 

— ChEMBL document CHEMBL6120988, “Mitochondria-targeting artesunate-rhein conjugates: Linker-modulated cell-permeability, heme-affinity and anticancer activity” (Eur J Med Chem, 2025)
